Results on 6 compounds are retold here after US6255088A, “Enzymatic sulfation of biomolecules” (The Scripps Research Institute, priority 1999, dated 2001).

Structures are written as SMILES. Read-outs that look alike come from different tables or passages of the source.

Data set [1] concerns the target T1, NodST (Sinorhizobium meliloti, UniProt P06236).
T1 sequence (P06236 1-247): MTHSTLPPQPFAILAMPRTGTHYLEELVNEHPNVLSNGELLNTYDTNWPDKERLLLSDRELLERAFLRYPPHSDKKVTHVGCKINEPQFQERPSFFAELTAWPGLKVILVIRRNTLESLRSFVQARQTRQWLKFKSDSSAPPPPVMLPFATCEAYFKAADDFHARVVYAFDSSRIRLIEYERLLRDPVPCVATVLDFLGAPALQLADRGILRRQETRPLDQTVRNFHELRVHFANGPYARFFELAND
The conditions noted are these: non-coupled radioisotope thin-layer chromatography assay, 100 μM PAPS; read-out: published Km of acceptor for NodST; cited from earlier work.

For data set [2], the target named is T1, NodST. As to the kind of experiment: Continuous spectrophotometric coupled-enzyme assay of NodST with βAST-IV PAPS regeneration. It counts as biochemical, Rhizobium melioti. As for the experimental part:
100 mM bis-tris propane-HCl, pH 7.0, 5 mM 2-mercaptoethanol, 20 μM PAPS, 2 mM p-nitrophenyl sulfate, 3.0 mU NodST, 6.4 mU β-AST IV, and substrate are combined to a total volume of 500 μL. Because commercial PAPS contains significant amounts of PAP, the assay solution is incubated for 30 minutes at 20° C. prior to addition of substrate. The evolution of p-nitrophenol is monitored at 400 nm for 10 minutes.
All reactions were run in a total volume of 500 μL at 25° C. […] The amount of NodST added to each series of acceptor concentrations is varied over 1.2, 1.8, 3.0, and 4.2 mU. Because commercial PAPS contains significant amounts of PAP, the assay solution is incubated for 30 minutes at 20° C. prior to addition of substrate. The evolution of p-nitrophenol is monitored at 400 nm for 10 minutes.
3.0 mU of NodST was used in each reaction. The Km for each series of PAP concentrations was calculated and the values were compared.

In a further data set the target is T2, βAST-IV (Rattus norvegicus, UniProt P17988).
T2 construct: made in house; host or cells: E. coli BL21(DE3)
As to the kind of experiment: Reverse-physiological reaction of βAST-IV (PAPS from PAP and p-nitrophenyl sulfate). The data set is classed as biochemical. The following applies: 10 mM p-nitrophenyl sulfate, pH 7.0, 25° C. As for the experimental part: All capillary zone electrophoresis (CZE) was run in 0.23 M borate in running buffer at pH 7.8. The column was pre-washed with H2 O (1 min), 1 N NaOH (1 min), and running buffer (2 min). The sample was pressure injected at 20 psi sec and electrophoresis was run with 20.0 kV (- to +) at 20° C. with detection at 260 nm. CZE of 1 mM standards PAPS, PAP, and 3'-adenosine monophosphate (3'-AMP) were run to determine retention times. The reverse-physiological reaction assay mixture, a 500 μL solution containing 50 mM bis-tris propane-HCl buffer at pH 7.0, 1 mM 2-mercaptoethanol, 10 mM p-nitrophenyl sulfate, and 1 mM PAP at 25° C., was subjected to CZE prior to addition of enzyme (t=0). 5 mU βAST-IV was added and CZE was repeated 30 minutes after initiation. The reaction was then diluted 100-fold and CZE was run again. A 2.0 μL internal standard of 10 mM PAPS was added, and CZE was repeated.
βAST-IV activity in the reverse-physiological reaction was determined at 25° C. with a total volume of 500 μL. The reverse-physiological assay above was used with varying PAP concentration (15.6, 31.3, 62.5, 125, 250, 500 μM). Measurement of initial velocity was conducted over 10 seconds at 400 nm, and an extinction coefficient of 1064 was used to calculate p-nitrophenol concentration at pH 7.0. […]

Data set [3] deals with T1, NodST. The conditions noted are these: Lin et al. 1995; read-out: Ki, PAP inhibition of NodST; cited from earlier work.
The subject of data set [4] is hydroxysteroid sulfotransferase. The following applies: Marcus et al. 1980, cited from earlier work.
In data set [5] the target is T1, NodST. The conditions noted are these: read-out: Km of NodST for PAPS; preliminary study. Here is the method:
To ensure that our coupled assay provides a steady-state PAPS concentration that is much greater than the Km of NodST, the Km experiments above were conducted with varying concentrations of PAPS to verify PAPS saturation. […] A previously published study using a radioisotopic thin-layer chromatography method to determine kinetic values of NodST maintained 100 μM PAPS concentration for all assays. Given that AST-IV maintains a constant concentration of PAPS through recycling, it is disclosed that 20 μM PAPS reaction concentration is sufficient for saturation conditions to maintain steady-state.

For data set [6] the following is noted: aqueous solution at pH 8.0; cited from earlier work.

T2 sequence (P17988 whole entry): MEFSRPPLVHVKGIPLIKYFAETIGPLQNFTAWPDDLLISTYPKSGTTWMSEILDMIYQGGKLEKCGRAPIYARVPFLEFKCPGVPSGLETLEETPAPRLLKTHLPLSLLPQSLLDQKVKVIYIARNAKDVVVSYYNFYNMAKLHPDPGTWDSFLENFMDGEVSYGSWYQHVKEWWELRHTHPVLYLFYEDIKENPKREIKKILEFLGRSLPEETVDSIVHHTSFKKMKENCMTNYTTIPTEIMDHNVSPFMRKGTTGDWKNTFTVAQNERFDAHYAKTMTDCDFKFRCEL

The Km is the substrate concentration at which the rate is half of its maximum. Consider `CC(=O)N[C@H]1[C@H](O[C@H]2[C@H](O)[C@@H](NC(C)=O)C(O)O[C@@H]2CO)O[C@H](CO)[C@@H](O[C@@H]2O[C@H](CO)[C@@H](O[C@@H]3O[C@H](CO)[C@@H](O)[C@H](O)[C@H]3NC(C)=O)[C@H](O)[C@H]2NC(C)=O)[C@@H]1O` (stereo partly drawn) [N,N',N",N'"-tetraacetylchitotetraose], for which the Km at NodST [1] is 140 µM. Besides, the “kcat of acceptor with NodST” value at NodST [2] (apparent value, coupled assay, 20 μM PAPS, pH 7.0) worked out at 0.328 s⁻¹. Also, the “acceptor specificity for NodST, ranking among substrates” value on NodST [2] (coupled assay, among N-acetyl chitoses, LacNAc and LacNAc dimer) was “best substrate”.

As for `CC(=O)N[C@H]1[C@H](O[C@H]2[C@H](O)[C@@H](NC(C)=O)C(O)O[C@@H]2CO)O[C@H](CO)[C@@H](O[C@@H]2O[C@H](CO)[C@@H](O)[C@H](O)[C@H]2NC(C)=O)[C@@H]1O` (stereo partly drawn) [N,N',N"-triacetylchitotriose], on NodST [2] (20, 40 and 100 μM PAPS, all three within 10% variation, 3.0 mU NodST), the “kcat of acceptor with NodST, PAPS concentration study” value was around 23.6 s⁻¹.

Turning to `CC(=O)N[C@H]1[C@H](O[C@H]2[C@H](O)[C@@H](NC(C)=O)[C@H](O[C@H]3[C@H](O)[C@@H](NC(C)=O)C(O)O[C@@H]3CO)O[C@@H]2CO)O[C@H](CO)[C@@H](O[C@@H]2O[C@H](CO)[C@@H](O[C@@H]3O[C@H](CO)[C@@H](O)[C@H](O)[C@H]3NC(C)=O)[C@H](O)[C@H]2NC(C)=O)[C@@H]1O` (stereo partly drawn) [N,N',N",N'",N""-pentaacetylchito-pentaose], on NodST [1], the Km was 190 µM.

In general, Ki refers to the dissociation constant of the complex between target and ligand, obtained from inhibition or displacement. Consider `Nc1ncnc2c1ncn2[C@@H]1O[C@H](COP(=O)(O)O)[C@@H](OP(=O)(O)O)[C@H]1O` [PAP, adenosine 3',5'-diphosphate], for which, on βAST-IV, the “Vmax of βAST-IV as a function of PAP concentration” value was found to be 6.04 ± 0.24 µmol/min. The Ki is 0.1 µM at NodST [3] and 14 µM in data set [4] (read-out: Ki, PAP inhibition of hydroxysteroid sulfotransferase). Further, the “enzyme product inhibition of sulfotransferases” value in data set [4] is given as “low-micromolar levels”.

For `CC(=O)N[C@H]1[C@H](O[C@H]2[C@@H](O)[C@@H](CO)O[C@@H](O[C@H]3[C@H](O)[C@@H](NC(C)=O)C(O)O[C@@H]3CO)[C@@H]2O)O[C@H](CO)[C@@H](O[C@@H]2O[C@H](CO)[C@H](O)[C@H](O)[C@H]2O)[C@@H]1O` (stereo partly drawn) [LacNAc dimer, Galβ(1,4)GlcNAcβ(1,3) Galβ(1,4)GlcNAc], the “increase in acceptor specificity from LacNAc to the LacNAc dimer” value at NodST [2] (NodST, coupled assay) is “sixty-fold increase”.

As to `Nc1ncnc2c1ncn2[C@@H]1O[C@H](COP(=O)(O)OS(=O)(=O)O)[C@@H](OP(=O)(O)O)[C@H]1O` [PAPS, 3'-phosphoadenosine-5'-phosphosulfate], the Km at NodST [5] is below 0.1 µM. In data set [6], the “half-life of PAPS in aqueous solution” value is “approximately 20 hours”.
